≈ marks a conversion by molar mass, not a printed value. Read-outs that look alike come from different tables or passages of the source.
Key:
Solubility = type: physicochemical; conditions: for Solubility at pH 7.4 relative to the parent compound, suggested/assumed from pH 4.0 data: pH 7.4, not measured directly
NMDA receptor subtype = conditions: known from WO 00/75109; cited from earlier work
Stability in solution = type: physicochemical; conditions: pH 7.4, 24 hours
[1] = pH 7, aqueous buffer, read-out: Solubility (μg/ml at pH 7)
[2] = pH 4, aqueous buffer, read-out: Solubility (μg/ml at pH 4)

SMILES	solubility (Solubility; aqueous buffer, pH 4.8 (printed in the cell of the pH 4 column), read-out: Solubility (μg/ml) at pH 4.8) [µg/mL]	solubility (Solubility; [1]) [µg/mL]	Water solubility at physiological pH (Solubility; physiological pH)	NMDA receptor subtype specific blocker (NMDA receptor subtype)	solubility (Solubility; [2]) [µg/mL]	Stability at pH 7.4 over 24 hours (Stability in solution)	Solubility at pH 7.4 relative to the parent compound, suggested/assumed from pH 4.0 data (Solubility)
O=S(=O)(CCN1CC[C@H](Cc2ccccc2)[C@H](O)C1)c1ccc(O)cc1 [Compound of formula II, (3S,4S)-4-[2-(4-benzyl-3-hydroxy-piperidin-1-yl)-ethanesulfonyl]-phenol, reference compound]	7750	47	limited water solubility	good NMDA receptor subtype specific blocker	–	–	–
O=C(O)CCC(=O)Oc1ccc(S(=O)(=O)CCN2CC[C@H](Cc3ccccc3)[C@H](O)C2)cc1 [Example 1, Succinic Acid Mono-{(3S,4S)-4-[2-(4-benzyl-3-hydroxy-piperidin-1-yl)-ethanesulfonyl]-phenyl}ester]	–	7690 (≈ 16.2 mM)	–	–	1800 (≈ 3.78 mM)	–	–
O=P(O)(O)Oc1ccc(S(=O)(=O)CCN2CC[C@H](Cc3ccccc3)[C@H](O)C2)cc1 [Example 2, Phosphoric Acid Mono-{(3S,4S)-4-[2-(4-benzyl-3-hydroxy-piperidin-1-yl)-ethanesulfonyl]-phenyl}ester]	–	> 37600	–	–	594 (≈ 1.3 mM)	–	–
O=C(Oc1ccc(S(=O)(=O)CCN2CC[C@H](Cc3ccccc3)[C@H](O)C2)cc1)c1cccc(CN2CCOCC2)c1 [Example 6, 3-Morpholin-4-ylmethyl-benzoic Acid (3S,4S)-4-[2-(4-benzyl-3-hydroxy-piperidin-1-yl)-ethanesulfonyl]-phenyl Ester]	–	89 (≈ 0.154 mM)	–	–	8500 (≈ 14.7 mM)	–	–
NCc1ccc(C(=O)Oc2ccc(S(=O)(=O)CCN3CC[C@H](Cc4ccccc4)[C@H](O)C3)cc2)cc1 [Example 7, 4-Aminomethyl-benzoic Acid (3S,4S)-4-[2-(4-benzyl-3-hydroxy-piperidin-1-yl)-ethanesulfonyl]-phenyl Ester]	–	–	–	–	6710 (≈ 13.2 mM)	unstable	higher solubility can be assumed
CNCc1cccc(C(=O)Oc2ccc(S(=O)(=O)CCN3CC[C@H](Cc4ccccc4)[C@H](O)C3)cc2)c1 [Example 9, 3-Methylaminomethyl-benzoic Acid (3S,4S)-4-[2-(4-benzyl-3-hydroxy-piperidin-1-yl)-ethanesulfonyl]-phenyl Ester]	–	–	–	–	86600 (≈ 166 mM)	unstable	higher solubility
CNCc1ccc(C(=O)Oc2ccc(S(=O)(=O)CCN3CC[C@H](Cc4ccccc4)[C@H](O)C3)cc2)cc1 [Example 10, 4-Methylaminomethyl-benzoic Acid (3S,4S)-4-[2-(4-benzyl-3-hydroxy-piperidin-1-yl)-ethanesulfonyl]-phenyl Ester]	–	–	–	–	26100 (≈ 49.9 mM)	unstable	higher solubility

— patent US6407235B1, “Prodrug acid esters of [2-(4-benzyl-3-hydroxy-piperidin-1-yl)-ethansulfonyl]phenol” (Hoffmann-La Roche Inc., priority 2001, dated 2002)
